The source of these data is patent US20110183946A1, “Complexes Comprising alpha2-Adrenergic Receptor Agonists and Methods of Providing Neuroprotection or Treating or Inhibiting Progression of Glaucoma” (priority 2007, published 2011).

Converted amounts (≈) assume the structure as drawn. Read-outs that look alike come from different tables or passages of the source.

Series [1] is described as follows: Solubility of various brimonidine complexes in water at the resulting pH. The following applies: for pH: resulting pH of the aqueous solubility sample. The format is physicochemical. On the procedure: In this experiment, various complexes comprising Brimonidine and counterions of one of the following acids were prepared: pamoic acid, capric acid, sebacic acid, hippuric acid, naproxen, 1-hydroxy-2-naphthoic acid, palmitic acid, and stearic acid. Variations of the procedure described in the following disclosure may be made within the skill of a person of ordinary skill in the art without departing from the scope of the present invention. Brimonidine free base in a preselected solvent was heated to about 60-70° C. The organic acid in another portion of the solvent was added into the heated mixture or was included in the original mixture before heating. The heating of the combined mixture was continued for an additional period, which was not critical. In certain embodiments, an antisolvent was added to the combined mixture, preferably at a lower temperature, to effect a precipitation of the complex of brimonidine and the counterion. It may be advantageous to remove a portion of the solvent and antisolvent to assist the precipitation. In certain other embodiments, the heated combined mixture was cooled down to a lower temperature, such as room temperature (or below) to effect the precipitation of the complex of brimonidine and the counterion. The precipitate was then filtered and dried to yield the final complex.

The nature of the next series: physchem. As for the experimental part: Brimonidine and pamoic acid, at a molar ratio of 1:1, were mixed and dispersed in N-methylpyrrolidone (“NMP”). The solution of brimonidine and pamoic acid in NMP was heated while stirring to dissolve brimonidine (the final temperature, typically less than 70° C., was chosen so as not to lose significant amount of solvent). […] The precipitation was allow to proceed; for example, for several hours or overnight. […] Other solvents, known to people skilled in the art, may be used for a compound that provides the counterion to the α2-adrenergic agonist, as appropriate.

The conditions of series [2]: see US Patent Application Publication 2005/0244463 A1; cited from earlier work.

For the compound `Brc1c(NC2=NCCN2)ccc2nccnc12.O=C(O)c1ccc2ccccc2c1O` [1-hydroxy-2-naphtoate], the pH in series [1] came to 6.8.

The compound `Brc1c(NC2=NCCN2)ccc2nccnc12` [brimonidine free base, 5-bromo-N-(2-imidazolin-2-yl)-6-quinoxalinamine] gave a solubility at 11 days in the series “physchem” (water, thermodynamic from solid) of 215 µg/mL (≈ 736 µM). This compound showed a solubility in series [1] (in water at the resulting pH (pH in column 1 of the same row)) of 48 to 200 µg/mL (≈ 164 to 685 µM). Moreover, in series [1], the pH is listed as 8.1-8.9. `Brc1c(NC2=NCCN2)ccc2nccnc12.O=C(O)c1cc2ccccc2c(Cc2c(O)c(C(=O)O)cc3ccccc23)c1O` [brimonidine pamoate] registered a Solubility in water in “physchem” of 207 µg/mL. Besides, the pH in series [1] was 7.2-7.5.

Regarding brimonidine tartrate, the Solubility in water in “physchem” (water, after 11 days on a twist shaker) was 41588 µg/mL; in series [2] it was “about 34 mg/ml”.

As for naphthoate, the pH in series [1] was 5.3-5.4.
